The source of these data is PMC11677235, “Heterologous Production, Purification and Characterization of Two Cold-Active β-D-Galactosidases with Transglycosylation Activity from the Psychrotolerant Arctic Bacterium Arthrobacter sp. S3* Isolated from Spitsbergen Island Soil” (International Journal of Molecular Sciences, 2024).

Holding throughout (assay type): biochemical
The target of test [1] is T1, Arthrobacter sp. S3* Bgal2 (GH2 β-D-galactosidase) (Arthrobacter sp. ON14, UniProt D9IU58).
T1 construct: gene galA
T1 sequence (D9IU58 entry or part of it): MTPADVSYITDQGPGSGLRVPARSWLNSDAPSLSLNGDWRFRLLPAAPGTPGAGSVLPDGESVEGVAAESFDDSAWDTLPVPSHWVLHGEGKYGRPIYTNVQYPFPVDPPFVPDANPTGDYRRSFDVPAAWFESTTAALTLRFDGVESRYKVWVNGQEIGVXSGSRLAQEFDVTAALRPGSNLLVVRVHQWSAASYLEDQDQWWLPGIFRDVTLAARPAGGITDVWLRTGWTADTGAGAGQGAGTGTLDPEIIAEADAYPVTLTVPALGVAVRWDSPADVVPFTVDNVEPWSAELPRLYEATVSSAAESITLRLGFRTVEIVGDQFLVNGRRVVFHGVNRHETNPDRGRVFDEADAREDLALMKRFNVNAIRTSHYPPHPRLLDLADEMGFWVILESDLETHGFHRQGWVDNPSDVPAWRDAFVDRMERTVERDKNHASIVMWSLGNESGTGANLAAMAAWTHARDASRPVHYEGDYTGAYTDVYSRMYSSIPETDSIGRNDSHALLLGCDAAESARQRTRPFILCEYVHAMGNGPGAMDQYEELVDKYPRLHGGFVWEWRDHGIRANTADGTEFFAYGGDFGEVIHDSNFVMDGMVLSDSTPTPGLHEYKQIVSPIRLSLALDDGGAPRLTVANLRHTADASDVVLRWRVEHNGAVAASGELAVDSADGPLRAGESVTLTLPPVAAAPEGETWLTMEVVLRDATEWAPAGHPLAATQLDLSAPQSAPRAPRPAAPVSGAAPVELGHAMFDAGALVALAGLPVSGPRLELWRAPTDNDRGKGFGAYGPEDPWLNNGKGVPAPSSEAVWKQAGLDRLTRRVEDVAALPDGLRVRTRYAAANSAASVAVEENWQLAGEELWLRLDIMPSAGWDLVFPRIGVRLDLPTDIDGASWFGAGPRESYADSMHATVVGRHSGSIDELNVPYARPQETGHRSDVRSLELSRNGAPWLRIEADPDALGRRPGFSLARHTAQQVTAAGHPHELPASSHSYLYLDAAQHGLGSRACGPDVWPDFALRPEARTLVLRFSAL
The test is described as follows: o-nitrophenol release, absorbance […] nm, Lineweaver-Burk. Particulars: 20 mM potassium phosphate, 50 mM KCl, pH 7.5, 20 °C; read-out: Km (mM) / ONPG. The text has this: S3* Bgal2 (GH2 β-D-galactosidase)

The target in test [2] is T2, Arthrobacter sp. S3* Bgal42 (GH42 β-D-galactosidase) (Arthrobacter sp. ON14, UniProt D9IU57, P2A/G388S/G665D).
T2 construct: gene galB
T2 sequence (D9IU57 entry or part of it P2A/G388S/G665D): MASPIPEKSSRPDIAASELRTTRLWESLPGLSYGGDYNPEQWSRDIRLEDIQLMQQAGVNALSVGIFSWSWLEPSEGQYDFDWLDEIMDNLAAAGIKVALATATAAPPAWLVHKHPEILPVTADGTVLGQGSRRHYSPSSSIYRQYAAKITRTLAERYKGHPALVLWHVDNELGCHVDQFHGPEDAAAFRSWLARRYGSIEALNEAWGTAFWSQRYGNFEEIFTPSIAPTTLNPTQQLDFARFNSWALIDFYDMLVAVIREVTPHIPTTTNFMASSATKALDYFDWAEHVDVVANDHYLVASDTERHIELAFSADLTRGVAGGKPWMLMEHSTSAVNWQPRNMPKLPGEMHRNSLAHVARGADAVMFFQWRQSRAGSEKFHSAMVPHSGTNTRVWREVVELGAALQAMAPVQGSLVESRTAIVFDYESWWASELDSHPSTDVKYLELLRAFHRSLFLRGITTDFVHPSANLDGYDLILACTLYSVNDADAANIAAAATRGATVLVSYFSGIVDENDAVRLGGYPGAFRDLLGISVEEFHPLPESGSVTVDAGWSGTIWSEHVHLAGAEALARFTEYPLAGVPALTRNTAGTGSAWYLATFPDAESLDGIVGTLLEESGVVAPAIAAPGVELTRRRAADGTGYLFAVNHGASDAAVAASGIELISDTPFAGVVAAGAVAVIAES
The experiment in a line: inhibition of ONPG hydrolysis, absorbance […] nm. Particulars: 5 mM monosaccharide, 1-5 mM ONPG, 20 mM potassium phosphate, pH 7.0, 30 °C, read-out: apparent Ki.

For test [3], the target named is T1, Arthrobacter sp. S3* Bgal2 (GH2 β-D-galactosidase). The experiment in a line: glucose release by Glucose (GO) Assay Kit, Lineweaver-Burk. Particulars: read-out: Km (mM) / Lactose; 20 mM potassium phosphate, 50 mM KCl, pH 7.5, 20 °C. The text has this:
glucose release by Glucose (GO) Assay Kit, Lineweaver-Burk on Arthrobacter sp. S3* Bgal2 (GH2 β-D-galactosidase)

Molecules are shown by their SMILES. Where two headings read alike, the source gives them in different places.

With `O=[N+]([O-])c1ccccc1O[C@@H]1O[C@H](CO)[C@H](O)[C@H](O)[C@H]1O` [ONPG], the Km in test [1] is 0.32 ± 0.07 mM. With `OC[C@H]1OC(O)[C@H](O)[C@@H](O)[C@@H]1O` (stereo partly drawn) [D-glucose], in test [2] (uncompetitive), the Ki was determined as 6.01 mM. Turning to `OC[C@H]1OC(O)[C@H](O)[C@@H](O)[C@H]1O` (stereo partly drawn) [D-galactose], the Ki in test [2] (competitive) was found to be 2.99 mM. On to `OC[C@H]1O[C@@H](O[C@H]2[C@H](O)[C@@H](O)C(O)O[C@@H]2CO)[C@H](O)[C@@H](O)[C@H]1O` (stereo partly shown) [lactose], for which the Km in test [3] came out at 16.7 ± 0.81 mM.
